Test system: ES cells or the iPS cells
Experiment: qPCR of marker gene expression in cells differentiated with added inhibitors
Format: cell-based, human
Conditions: 10 nM C59, spheres, qPCR
Source text: Human ES cells (KhES-1) were obtained from Institute for Frontier Medical Sciences, Kyoto University (Suemori H, et al. Biochem Biophys Res Commun. 345: 926-32, 2006). The human iPS cells 404C2 are cells obtained by introducing Oct3/4, Sox2, Klf4, L-MYC, LIN28 and p53shRNA into human fibroblasts, using an episomal vector, and these cells were obtained from Professor Yamanaka et al. in Kyoto University (Okita, et al, Nat Methods. 8: 409-412, 2011). The human iPS cells 836B1 are cells obtained by introducing Oct3/4, Sox2, Klf4, L-MYC, LIN28, GLIS1 and p53shRNA into human fibroblasts, using an episomal vector, and these cells were obtained from Professor Yamanaka et al. in Kyoto University. The ES cells and the iPS cells were cultured on SNL cells (Takahashi K, et al, Cell. 131: 861-872, 2007).
On the day before induction of differentiation, in order to separate the ES cells or the iPS cells, which had been cultured in a culture medium to which 10 μM Y-27632 (WAKO) had been added, from the SNL feeder cells, the SNL cells were removed with CTK and the remaining cells were then dissociated using Accumax (ICT). The cells were transferred on a 96-well plate (Lipidure-coat 96-well plate (NOF Corporation)) in an amount of 9×10^3 cells per well. Thereafter, the cells were subjected to a suspension culture in DMEM/F12 (WAKO) comprising 50 μM Y-27632 (WAKO), 10 μM SB43152 (Sigma), 10 ng/ml bFGF (Invitrogen), various types of Wnt inhibitors (DKK1 (R & D, 500 ng/ml), C59 (Cellagen Technology, 2-10 nM), XAV (Stemgent, 500 nM-2 μM) or IWP4 (Stemgent, 500 nM-2.5 μM)), LDN193189 (Stemgent), KSR (Invitrogen), 0.1 mM MEM non-essential amino acid (Invitrogen), 0.1 mM 2-mercaptoethanol (WAKO), and 2 mM L-Gln (Invitrogen) (initiation of differentiation induction, day 0). […] Three days later, the medium was exchanged with DMEM/F12 (WAKO) comprising various types of Wnt inhibitors (DKK1, C59, XAV or IWP4 (Stemgent)), LDN193189 (Stemgent), KSR (Invitrogen), 0.1 mM MEM non-essential amino acid (Invitrogen), 0.1 mM 2-mercaptoethanol (WAKO), and 2 mM L-Gln (Invitrogen) (day 6). Thereafter, the medium was exchanged with a fresh one of the same type every 3 days, and the culture was carried out for 18 days after the initiation of differentiation induction (day 18).
The obtained cell mass was transferred on a dish (24-well plate (BD)) coated with 50 μg/ml ornithine (Sigma), 5 μg/ml laminin (Sigma) and 5 μg/ml fibronectin (BD Bioscience Pharmingen), and the culture was continued in Neurobasal (Invitrogen), to which B27 (Invitrogen), 2 mM L-Gln, and 10 units/ml penicillin and streptomycin (Invitrogen) had been added. The culture was carried out for, at maximum, 46 days after the initiation of differentiation induction. It is to be noted that the medium was exchanged with a fresh one every 2 or 3 days.
In the above-described induction method, 500 ng/ml DKK1, 2 nM C59, 500 nM XAV or 500 nM IWP4 was added as a Wnt inhibitor to the cells, and the obtained mixture was then cultured for 18 days. Thereafter, the expression levels of Six3 (forebrain marker), Sox1 (neuroectodermal marker), Foxg1 (cerebral cortex-forming factor), Lhx2 (cerebral cortex-forming factor), Emx2 (forebrain back portion marker), CoupTF1 (forebrain back portion marker) and Pax6 (forebrain front portion marker) genes in the cultured cells were measured by a qPCR method (FIG. 2).
The concentration of C59 used as a Wnt inhibitor in the above-described induction method was examined. Specifically, without using C59, or using 2.5 nM, 10 nM and 1 μM C59, the cells were cultured for 18 days. […] The obtained spheres were subjected to immunostaining of using an antibody against Pax6. […] Furthermore, the expression levels of the Foxg1, Lhx2, Emx2 and CoupTF1 genes in the obtained spheres were measured according to a qPCR method (FIG. 4B). As a result, the expression level of CoupTF1 was low and the expression levels of Lhx2 and Foxg1 were high in the case of using 10 nM C59. […]

**Q.** Which “expression level of CoupTF1” value does the source give for Cc1cc(-c2ccc(CC(=O)Nc3ccc(-c4cccnc4)cc3)cc2)ccn1 [C59] here?
**A.** low

**Q.** And the “expression level of Foxg1” value?
**A.** high

**Q.** What about the “expression level of Lhx2” value of the same compound?
**A.** high

From US10626368B2, “Method for inducing cerebral cortex neurons” (KYOTO UNIVERSITY, priority 2015, dated 2020)
